# According to patent US7198931B2, “Phosphorylated glyoxalase I and its use” (Vlaams Interuniversitair Instituut voor Biotechnologie VZW, priority 2001, dated 2007):
# Read-outs that look alike come from different tables or passages of the source.
# Key:
# Type in all cases: cell-based
# L929 cells = test system: L929 cells
# Procedure: Murine TNF (mTNF) was obtained from Roche Diagnostics and was used at 1000 IU/ml unless indicated otherwise. Propidium iodide (PI) and cycloheximide (CHX) (all from Sigma) were used at concentrations of 30 μM and 50 μg/ml, respectively.
# Cell death in L929 was induced by addition of TNF to the cell suspension. Cell death was measured by quantifying PI-positive cells by FACS (FACSCalibur, Becton Dickinson, San Jose, Calif.). The PI dye was excited with an argon-ion laser at 488 nm; PI fluorescence was measured above 590 nm using a long-pass filter. Routinely, 3,000 cells were analyzed. Cell death is expressed as the percentage of PI-positive cells in the total cell population.
# specific MG-derived AGE = assay: Detection of the specific MG-derived AGE by Western blot with mAb6B, densitometry of the ECL signal
# Procedure: L929 cells were seeded 48 hours prior to the experiment. TNF incubations (1000 U/ml) were done in the presence of CHX to synchronize cell death. After TNF incubations (1.5 hours or 2.5 hours), the cells were rinsed three times with ice-cold PBS buffer and cell lysates were prepared in a CHAPS-containing cytosol extraction buffer (Guy et al., 1992). […] To use the antibody sparingly, SDS-PAGE gels were only run over a distance of 5 cm.
# glyoxalase I = biological target: T1, glyoxalase I (Mus musculus, UniProt Q9CPU0); assay: TNF-induced phosphorylation of glyoxalase I (32P labeling, 2-D gels, Western blot with anti-human glyoxalase I antibody)
# T1 construct: TNF-induced phosphorylation of endogeneous glyoxalase I in L929 cells; endogenous in cells; host or cells: L929 cells
# T1 sequence (Q9CPU0 2-184 limits assumed): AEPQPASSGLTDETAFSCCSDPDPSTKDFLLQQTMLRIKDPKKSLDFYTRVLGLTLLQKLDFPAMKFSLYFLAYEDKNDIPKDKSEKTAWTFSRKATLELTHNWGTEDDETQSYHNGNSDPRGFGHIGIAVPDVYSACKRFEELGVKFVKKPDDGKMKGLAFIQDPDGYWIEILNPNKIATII
# Procedure: L929 cells were plated 48 hours prior to the experiment. ^32P labeling was carried out as described in (Guy et al., 1992). TNF treatments (1000 IU/ml, 1.5 hours) were done in the presence of cycloheximide (CHX), to synchronize cell death. To simplify the 2-D phosphoprotein pattern and subsequent computer-assisted analysis, we prepared two subcellular protein fractions. The cytosolic protein fraction, containing soluble cytoplasmic molecules and molecules derived from single-membrane organelles, was obtained as the supernatant from digitonin (0.03%)-permeabilized cells. After rinsing once with excess PBS buffer, the remaining cell fraction was lysed in a CHAPS (2%)-containing buffer as described in (Guy et al., 1992). This lysate was then centrifuged (20,000 g) and the supernatant was used as the organelle fraction; it is enriched for mitochondrial and cytoskeleton-derived proteins.
# Isoelectric focusing. […] Protein samples were precipitated with ethanol and redissolved in lysis buffer.
# SDS-PAGE. The second dimension (SDS-PAGE) was run on large vertical gels (12.5% acrylamide, Biorad).
# Proteins were separated by SDS-PAGE (12.5%) and transferred to a PVDF membrane (Hybond-P, Amersham Pharmacia Biotech). […]
# [1] = L929 cells pretreated (BBGD 20 μM; H89 5 μM), after 1.5 hours of TNF treatment
# [2] = L929 cells pretreated (BBGD 20 μM; H89 5 μM), after 2.5 hours of TNF treatment
smiles,measurement,setting,value
"CC(=O)C=O [MG, methylglyoxal]",effect of exogeneously added MG on TNF-induced cell death,"L929 cells; 5.5 hours incubation with TNF and methylglyoxal, concentration-dependent",strongly synergistic
N=C(N)NN [aminoguanidine],inhibition of TNF-induced cell death,"L929 cells; 16 hours TNF 20 U/ml, 400 μM",15%
same,maximum inhibition of TNF-induced cell death,"L929 cells; 16 hours TNF 20 U/ml, 600 or 800 μM",25%
O=CC[C@@H](O)[C@H](O)[C@H](O)CO [2-deoxyglucose],inhibition of TNF-induced cell death,L929 cells; 2-deoxyglucose 2:1 ratio to glucose,65%
same,inhibition of formation of the specific MG-derived AGE,"specific MG-derived AGE; TNF 1000 U/ml + CHX, 2.5 hours, 2-deoxyglucose 2:1 ratio to glucose, given with TNF",65%
"COc1ccc(O)c(C(C)(C)C)c1 [BHA, butylated hydroxyanisole]",reduction of formation of the specific MG-derived AGE,"specific MG-derived AGE; TNF 1000 U/ml + CHX, 2.5 hours, BHA 100 μM given 0.5 hour after TNF",65%
O=S(=O)(NCCNC/C=C/c1ccc(Br)cc1)c1cccc2cnccc12 [H89],effect on TNF-induced cell death,"L929 cells; pretreatment 2 hours, 1 μM",inhibitory effect
same,inhibition of TNF-induced cell death,"L929 cells; pretreatment 2 hours, 5 μM",> 50%
same,effect on induction of the more acidic (phosphorylated) isoform of glyoxalase I by TNF,"glyoxalase I; L929 cells, pretreatment, 5 μM",completely abolished
same,reduction of formation of the specific MG-derived AGE,specific MG-derived AGE; [1],70%
same,reduction of formation of the specific MG-derived AGE,specific MG-derived AGE; [2],20%
"NC(CCC(=O)NC(CSCc1ccc(Br)cc1)C(=O)NCC(=O)OC1CCCC1)C(=O)OC1CCCC1 (stereo not shown) [BBGD, s-p-bromobenzylglutathione cyclopentyl diester]",increase in TNF-induced cell death (synergistic effect),"L929 cells; inhibitor and TNF added at the same time, 20 μM",50%
same,inhibition of TNF-induced cell death,"L929 cells; preincubation 1 hour 10 minutes with inhibitor, 20 μM",60%
same,effect on TNF-induced phosphorylation of GLO1,"glyoxalase I; cells preincubated with the inhibitor for 1 hour 10 minutes, 2-D gels pH 3–10",inhibits the TNF-induced phosphorylation of GLO1
same,reduction of formation of the specific MG-derived AGE,specific MG-derived AGE; [1],50%
same,reduction of formation of the specific MG-derived AGE,specific MG-derived AGE; [2],10%
